Data from US20250034159A1, “INHIBITORS OF EPIDERMAL GROWTH FACTOR RECEPTOR” (ORIC Pharmaceuticals, Inc., priority 2021, published 2025).
Read-outs that look alike come from different tables or passages of the source.

Experiments:
BaF3_EGFR d19/CS cells = test: Biological Activity Assay D: BaF3 cell proliferation assay, EGFR exon 19 deletion/C797S (BaF3 d19/CS); type: cell-based; conditions: Ba/F3 EGFR, read-out: BaF3 d19/CS IC50
BaF3_EGFR LR/CS cells = test: Biological Activity Assay D: BaF3 cell proliferation assay, EGFR L858R/C797S mutant (BaF3 LR/CS); type: cell-based; conditions: Ba/F3 EGFR, read-out: BaF3 LR/CS IC50
[1] = target: recombinant human EGFR exon 19 deletion/C797S double mutant protein (Homo sapiens (Human), UniProt P00533, C797S/DEL746-750); test: Biological Activity Assay C: biochemical assay against EGFR exon 19 deletion/C797S protein (EGFR d19/CS)
Outline: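 IC50 values were fitted with a 4-parameter model to reaction slopes taken from 90 kinetic reads spaced 120 s apart. The Phosphosens sensor/ATP working solution was 40 uM/4 mM, and compound was dosed as 16-point dilutions at 2.5% final DMSO.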

Ba/F3_EGFR WT cells = test: Biological Activity Assay D: BaF3 cell proliferation assay, EGFR wild-type (BaF3 WT); type: cell-based; conditions: Ba/F3 EGFR, read-out: BaF3 WT IC50
[2] = BaF3_EGFR d19/CS cells, ~72 hours, CellTiter-Glo
[3] = BaF3_EGFR LR/CS cells, ~72 hours, CellTiter-Glo
[4] = Ba/F3_EGFR WT cells, ~72 hours, CellTiter-Glo

Sequence of recombinant human EGFR exon 19 deletion/C797S double mutant protein (P00533 other isoform, or with tags, fused parts or gaps C797S/del 1-668/del 746-750 limits assumed): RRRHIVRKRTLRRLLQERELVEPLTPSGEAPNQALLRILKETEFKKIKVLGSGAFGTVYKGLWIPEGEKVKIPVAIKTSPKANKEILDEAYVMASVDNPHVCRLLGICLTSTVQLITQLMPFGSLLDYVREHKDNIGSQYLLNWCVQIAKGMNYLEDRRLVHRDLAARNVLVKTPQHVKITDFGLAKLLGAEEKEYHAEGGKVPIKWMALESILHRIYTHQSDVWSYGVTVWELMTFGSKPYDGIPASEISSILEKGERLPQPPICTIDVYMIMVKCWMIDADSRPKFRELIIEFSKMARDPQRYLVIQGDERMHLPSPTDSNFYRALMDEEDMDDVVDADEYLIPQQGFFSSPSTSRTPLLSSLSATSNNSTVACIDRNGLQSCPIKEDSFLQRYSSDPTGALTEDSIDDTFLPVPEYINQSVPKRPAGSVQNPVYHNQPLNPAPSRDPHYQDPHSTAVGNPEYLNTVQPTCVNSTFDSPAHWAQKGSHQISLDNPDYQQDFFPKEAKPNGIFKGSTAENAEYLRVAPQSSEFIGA

IC50 (BaF3_EGFR d19/CS cells; [2]) [nM]	IC50 (BaF3_EGFR LR/CS cells; [3]) [nM]	IC50 [1] [nM]	IC50 (Ba/F3_EGFR WT cells; [4]) [nM]	Structure (SMILES)	IC50 (BaF3_EGFR d19/CS cells; 72 h) [nM]	IC50 (BaF3_EGFR LR/CS cells; 72 h) [nM]	IC50 (Ba/F3_EGFR WT cells; 72 h) [nM]
1150	3570	15.6	> 20000	O=S1(=O)CC(n2cc(-c3ncnc4oc(N5CC6(CCOC6)C5)cc34)c(-c3ccc(F)cc3)n2)C1 [Example 168, 3-{3-(4-fluorophenyl)-4-[6-(6-oxa-2-azaspiro[3.4]octan-2-yl)furo[2,3-d]pyrimidin-4-yl]-1H-pyrazol-1-yl}-1λ6-thietane-1,1-dione]			
395	256	1.43	6980	CS(=O)(=O)[C@@H]1CC[C@H](n2cc(-c3ncnc4oc(-c5ccccc5)cc34)c(-c3ccc(F)cc3)n2)C1 (racemic) [Example 185, 4-{3-(4-fluorophenyl)-1-[3-(methanesulfonyl)cyclopentyl]-1H-pyrazol-4-yl}-6-phenylfuro[2,3-d]pyrimidine]			
1.32	1.88	0.227	134	Cn1cnc(-c2cc3c(-c4cn([C@H]5C[C@H](C#N)C5)nc4-c4ccc(F)cc4)ncnc3o2)c1 [Example 270, (1r,3r)-3-{3-(4-fluorophenyl)-4-[6-(1-methyl-1H-imidazol-4-yl)furo[2,3-d]pyrimidin-4-yl]-1H-pyrazol-1-yl}cyclobutane-1-carbonitrile]			
359	751	4.99	14200	O=C1CCCCN1c1cc2c(-c3cn(C4CS(=O)(=O)C4)nc3-c3ccc(F)cc3)ncnc2o1 [Example 160, 3-{3-(4-fluorophenyl)-4-[6-(2-oxopiperidin-1-yl)furo[2,3-d]pyrimidin-4-yl]-1H-pyrazol-1-yl}-1λ6-thietane-1,1-dione]			
348	186	0.63	4450	Fc1ccc(-c2nn([C@@H]3C[C@H]4CC[C@@H](C3)O4)cc2-c2ncnc3oc(-c4ccccc4)cc23)cc1 [Example 186, 4-{3-(4-fluorophenyl)-1-[(1R,3s,5S)-8-oxabicyclo[3.2.1]octan-3-yl]-1H-pyrazol-4-yl}-6-phenylfuro[2,3-d]pyrimidine]			
47	78.2	0.396	4060	CC(C)(O)Cn1cc(-c2ncnc3oc(-c4ccccc4Cl)cc23)c(-c2ccc(F)cc2)n1 [Example 262, 1-{4-[6-(2-chlorophenyl)furo[2,3-d]pyrimidin-4-yl]-3-(4-fluorophenyl)-1H-pyrazol-1-yl}-2-methylpropan-2-ol]			
886	502	4.88	18900	CC1(C)C[C@H](n2cc(-c3ncnc4oc(-c5ccccc5)cc34)c(-c3ccc(F)cc3)n2)CCO1 (single isomer, unassigned) [Example 225]			
107	66.6	0.2	1610	CC(=O)N1CC[C@H](n2cc(-c3ncnc4oc(-c5ccccc5)cc34)c(-c3ccc(F)cc3)n2)C1 (single isomer, unassigned) [Example 129]			
440	630	0.75	16300	O=S1(=O)CC(n2cc(-c3ncnc4oc(C5=CNCCC5)cc34)c(-c3ccc(F)cc3)n2)C1 [Example 154, 3-{3-(4-fluorophenyl)-4-[6-(1,4,5,6-tetrahydropyridin-3-yl)furo[2,3-d]pyrimidin-4-yl]-1H-pyrazol-1-yl}-1λ6-thietane-1,1-dione]			
31.7	38.2	0.288	857	Cc1nn(C)c(C(F)F)c1-c1cc2c(-c3cn(CC(C)(C)O)nc3-c3ccc(F)cc3)ncnc2o1 [Example 280, 1-[4-{6-[5-(difluoromethyl)-1,3-dimethyl-1H-pyrazol-4-yl]furo[2,3-d]pyrimidin-4-yl}-3-(4-fluorophenyl)-1H-pyrazol-1-yl]-2-methylpropan-2-ol]			
35.4	17.9	0.46	660	Fc1ccc(-c2nn(CCOC(F)F)cc2-c2ncnc3oc(-c4ccccc4)cc23)cc1 [Example 231, 4-{1-[2-(difluoromethoxy)ethyl]-3-(4-fluorophenyl)-1H-pyrazol-4-yl}-6-phenylfuro[2,3-d]pyrimidine]			
24.6	15.8	0.09	3680	O=S1(=O)CC(n2cc(-c3ncnc4[nH]c(-c5ccccc5)nc34)c(-c3ccc(F)cc3)n2)C1 [Example 127, 3-[3-(4-Fluorophenyl)-4-(8-phenyl-9H-purin-6-yl)-1H-pyrazol-1-yl]-1λ6-thietane-1,1-dione]			
365	799	6.89	6000	O=S1(=O)CC(n2cc(-c3ncnc4oc(-c5ncccn5)cc34)c(-c3ccc(F)cc3)n2)C1 [Example 195, 3-{3-(4-fluorophenyl)-4-[6-(pyrimidin-2-yl)furo[2,3-d]pyrimidin-4-yl]-1H-pyrazol-1-yl}-1λ6-thietane-1,1-dione]			
213	97.1	1.37	4840	Fc1ccc(-c2nn(C3CC(F)(F)C3)cc2-c2ncnc3oc(-c4ccccc4)cc23)cc1 [Example 170, 4-[1-(3,3-difluorocyclobutyl)-3-(4-fluorophenyl)-1H-pyrazol-4-yl]-6-phenylfuro[2,3-d]pyrimidine]			
8.85	8.63	0.213	613	Oc1ncccc1-c1cc2c(-c3cn([C@H]4C[C@@H](F)C4)nc3-c3ccc(F)cc3)ncnc2o1 [Example 287, 3-(4-{1-[(1s,3s)-3-fluorocyclobutyl]-3-(4-fluorophenyl)-1H-pyrazol-4-yl}furo[2,3-d]pyrimidin-6-yl)pyridin-2-ol]			
97	79.3	0.27	2110	CS(=O)(=O)N1CC=C(c2cc3c(-c4cn(C5CS(=O)(=O)C5)nc4-c4ccc(F)cc4)ncnc3o2)CC1 [Example 181, 3-[3-(4-fluorophenyl)-4-{6-[1-(methanesulfonyl)-1,2,3,6-tetrahydropyridin-4-yl]furo[2,3-d]pyrimidin-4-yl}-1H-pyrazol-1-yl]-1λ6-thietane-1,1-dione]			
2.5	2.13	0.094	135	Cn1cnc(-c2cc3c(-c4cn(CC(F)(F)CO)nc4-c4ccc(F)cc4)ncnc3o2)c1 [Example 266, 2,2-difluoro-3-{3-(4-fluorophenyl)-4-[6-(1-methyl-1H-imidazol-4-yl)furo[2,3-d]pyrimidin-4-yl]-1H-pyrazol-1-yl}propan-1-ol]			
4.31	5.14	0.123	272	Cn1cnc(-c2cc3c(-c4cn([C@H]5C[C@H](O)C5)nc4-c4ccc(F)cc4)ncnc3o2)c1 [Example 278, (1r,3r)-3-{3-(4-fluorophenyl)-4-[6-(1-methyl-1H-imidazol-4-yl)furo[2,3-d]pyrimidin-4-yl]-1H-pyrazol-1-yl}cyclobutan-1-ol]			
309	438	3.6	2120	Cc1cnc(-c2cc3c(-c4cn(C5CS(=O)(=O)C5)nc4-c4ccc(F)cc4)ncnc3o2)o1 [Example 234, 3-{3-(4-fluorophenyl)-4-[6-(5-methyl-1,3-oxazol-2-yl)furo[2,3-d]pyrimidin-4-yl]-1H-pyrazol-1-yl}-1λ6-thietane-1,1-dione]			
6.17	2.36	0.153	235	Cn1cnc(-c2cc3c(-c4cn(CCC(F)F)nc4-c4ccc(F)cc4)ncnc3o2)c1 [Example 263, 4-[1-(3,3-difluoropropyl)-3-(4-fluorophenyl)-1H-pyrazol-4-yl]-6-(1-methyl-1H-imidazol-4-yl)furo[2,3-d]pyrimidine]			
5.28	6.71	0.37	87.8	C[C@@H]1C[C@H](n2cc(-c3ncnc4oc(-c5ccccc5)cc34)c(-c3ccc(F)cc3)n2)CN1S(C)(=O)=O [Example 212, 4-{3-(4-fluorophenyl)-1-[(3S,5R)-1-(methanesulfonyl)-5-methylpyrrolidin-3-yl]-1H-pyrazol-4-yl}-6-phenylfuro[2,3-d]pyrimidine]			
92.7	100	0.42	2550	O=S1(=O)CC(n2cc(-c3ncnc4oc(-c5nccs5)cc34)c(-c3ccc(F)cc3)n2)C1 [Example 248, 3-{3-(4-fluorophenyl)-4-[6-(1,3-thiazol-2-yl)furo[2,3-d]pyrimidin-4-yl]-1H-pyrazol-1-yl}-16-thietane-1,1-dione]			
88.9	22.5	1.33	2020	Fc1ccc(-c2nn([C@H]3CCOC[C@@H]3F)cc2-c2ncnc3oc(-c4ccccc4)cc23)cc1 (single isomer, unassigned) [Example 152]			
162	32.8	0.83	1640	CN1CC[C@H](n2cc(-c3ncnc4oc(-c5ccccc5)cc34)c(-c3ccc(F)cc3)n2)C1=O (single isomer, unassigned) [Example 167]			

Structure (SMILES)	IC50 (BaF3_EGFR d19/CS cells; [2]) [nM]	IC50 (BaF3_EGFR LR/CS cells; [3]) [nM]	IC50 [1] [nM]	IC50 (Ba/F3_EGFR WT cells; [4]) [nM]	IC50 (BaF3_EGFR d19/CS cells; 72 h) [nM]	IC50 (BaF3_EGFR LR/CS cells; 72 h) [nM]	IC50 (Ba/F3_EGFR WT cells; 72 h) [nM]
CC(=O)NCCn1cc(-c2ncnc3oc(-c4ccccc4)cc23)c(-c2ccc(F)cc2)n1 [Example 134, N-{2-[3-(4-Fluorophenyl)-4-(6-phenylfuro[2,3-d]pyrimidin-4-yl)-1H-pyrazol-1-yl]ethyl}acetamide]			0.3		57.1	33.3	1030
